Results published in patent publication EP1388013B1, “COMPOSITIONS AND METHODS FOR THE USE OF FIBRONECTIN FRAGMENTS IN THE DIAGNOSIS OF CANCER” (THE REGENTS OF THE UNIVERSITY OF MICHIGAN, priority 2001, dated 2002).
No end group written: not given here.

System: normal human prostate epithelial cells
Assay: SU-ECM invasion assay, normal prostate epithelial cells
Format: cell-based
Conditions: SU-ECM, serum containing environment; Figure 12
Description: Adult Strongylocentrotus purpuratus sea urchins were obtained from Pacific BioMarine, and their embryos were cultured to the early pluteus stage in artificial sea water at 15°C. SU-ECM were prepared from them by treatment with nonionic detergent and sterilized by dilution in the appropriate media.
[…] When appropriate, purified bovine plasma fibronectin (Sigma, St. Louis, Mo), purified 120 kDa chymotryptic fragment (Gibco BRL), PHSRN or PHSCN peptides (synthesized at the Biomedical Research Core Facilities of the University of Michigan), or GRGDSP or GRGESP peptides (Gibco BRL) were added to the resuspended cells prior to placement of the cells on SU-ECM. In each well of a plate used for an invasion assay, SU-ECM were placed in 0.5 ml of the appropriate medium, and 0.5ml of the resuspended cells dropped on their exterior surfaces. Invasion assays were incubated 1 to 16 hours prior to scoring. If some circumstances, invasion assays were fixed in phosphate-buffered saline (PBS) with 2% formaldehyde for 5 minutes at room temperature, then rinsed into PBS.
Invasion assays were coded and scored blindly by microscopic examination under phase contrast at 200- and 400-fold magnification. Each cell contacting an SU-ECM was scored for its position relative to the exterior or interior surfaces. A cell was judged to have invaded if it was located on an interior surface below the focal plane passing through the upper surface of the SU-ECM, but above the focal plane passing through its lower surface. The minimum viability of the cells in each assay was always ascertained at the time of assay by determining the fraction of spread, adherent cells on the bottom of each well scored.
An invasion frequency is defined as the fraction of cells in contact with basement membranes which were located in their interiors at the time of assay. […] Invasion frequencies were determined multiple times for each cell type assayed. For each type of cell assayed the mean and standard deviation of the invasion frequencies were calculated. […]

PHSRN [PHSRN]
induction of invasive behavior of human prostate epithelial cells: induces the invasive behaviors
